Source: PubChem BioAssay (NCI)
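Five compound concentrations were applied to cells in 96-well plates for 48 hours; endpoints were derived by simple linear interpolation of the resulting dose-response curve. TGI: total growth inhibition.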

Test system: SK-MEL-28 melanoma
Test: DTP human tumour cell line panel, 48 h

SMILES	TGI [µM]
CCOC(=O)c1sc2c(sc(=O)n2-c2ccccc2)c1O	> 100
Cc1ccc(NC(=O)CC(=O)n2nc(-c3ccccc3)c(N=Nc3ccccc3[N+](=O)[O-])c2-c2ccccc2)cc1	> 100
C/C(=N/NC(=O)c1ccccc1O)c1ccc(/C(C)=N\NC(=O)c2ccccc2O)c2nc3cc(C)c(C)cc3nc12	> 100

Test system: SK-MEL-5 melanoma
Test: DTP human tumour cell line panel, 48 h

SMILES	TGI [µM]
COc1ccc(/C=C/c2cc(OC)cc(OC)c2)cc1	> 100
CN(c1nc(=[N+](C)C)ss1)C1CCCCC1	> 100
CCOC(=O)c1sc2c(sc(=O)n2-c2ccccc2)c1O	> 100
Cc1ccc(NC(=O)CC(=O)n2nc(-c3ccccc3)c(N=Nc3ccccc3[N+](=O)[O-])c2-c2ccccc2)cc1	> 100
C/C(=N/NC(=O)c1ccccc1O)c1ccc(/C(C)=N\NC(=O)c2ccccc2O)c2nc3cc(C)c(C)cc3nc12	> 100

Test system: SK-OV-3 ovarian
Test: DTP human tumour cell line panel, 48 h

SMILES	TGI [µM]
COc1ccc(/C=C/c2cc(OC)cc(OC)c2)cc1	37.5
CN(c1nc(=[N+](C)C)ss1)C1CCCCC1	> 100
CCOC(=O)c1sc2c(sc(=O)n2-c2ccccc2)c1O	> 100
Cc1ccc(NC(=O)CC(=O)n2nc(-c3ccccc3)c(N=Nc3ccccc3[N+](=O)[O-])c2-c2ccccc2)cc1	> 100
C/C(=N/NC(=O)c1ccccc1O)c1ccc(/C(C)=N\NC(=O)c2ccccc2O)c2nc3cc(C)c(C)cc3nc12	> 100

Test system: SN12C renal
Test: DTP human tumour cell line panel, 48 h

SMILES	TGI [µM]
COc1ccc(/C=C/c2cc(OC)cc(OC)c2)cc1	> 45.4
CN(c1nc(=[N+](C)C)ss1)C1CCCCC1	> 100
CCOC(=O)c1sc2c(sc(=O)n2-c2ccccc2)c1O	> 100
Cc1ccc(NC(=O)CC(=O)n2nc(-c3ccccc3)c(N=Nc3ccccc3[N+](=O)[O-])c2-c2ccccc2)cc1	> 100
C/C(=N/NC(=O)c1ccccc1O)c1ccc(/C(C)=N\NC(=O)c2ccccc2O)c2nc3cc(C)c(C)cc3nc12	> 100

Test system: SNB-19 CNS
Test: DTP human tumour cell line panel, 48 h

SMILES	TGI [µM]
COc1ccc(/C=C/c2cc(OC)cc(OC)c2)cc1	> 100
CN(c1nc(=[N+](C)C)ss1)C1CCCCC1	> 100
CCOC(=O)c1sc2c(sc(=O)n2-c2ccccc2)c1O	> 100
Cc1ccc(NC(=O)CC(=O)n2nc(-c3ccccc3)c(N=Nc3ccccc3[N+](=O)[O-])c2-c2ccccc2)cc1	> 100
C/C(=N/NC(=O)c1ccccc1O)c1ccc(/C(C)=N\NC(=O)c2ccccc2O)c2nc3cc(C)c(C)cc3nc12	> 100

Test system: SNB-75 CNS
Test: DTP human tumour cell line panel, 48 h

SMILES	TGI [µM]
COc1ccc(/C=C/c2cc(OC)cc(OC)c2)cc1	> 35.6
CN(c1nc(=[N+](C)C)ss1)C1CCCCC1	> 100
CCOC(=O)c1sc2c(sc(=O)n2-c2ccccc2)c1O	> 100
Cc1ccc(NC(=O)CC(=O)n2nc(-c3ccccc3)c(N=Nc3ccccc3[N+](=O)[O-])c2-c2ccccc2)cc1	> 100
C/C(=N/NC(=O)c1ccccc1O)c1ccc(/C(C)=N\NC(=O)c2ccccc2O)c2nc3cc(C)c(C)cc3nc12	> 100

Test system: SNB-78 CNS
Test: DTP human tumour cell line panel, 48 h

SMILES	TGI [µM]
COc1ccc(/C=C/c2cc(OC)cc(OC)c2)cc1	8.71
CN(c1nc(=[N+](C)C)ss1)C1CCCCC1	> 100
CCOC(=O)c1sc2c(sc(=O)n2-c2ccccc2)c1O	> 100
Cc1ccc(NC(=O)CC(=O)n2nc(-c3ccccc3)c(N=Nc3ccccc3[N+](=O)[O-])c2-c2ccccc2)cc1	> 100
C/C(=N/NC(=O)c1ccccc1O)c1ccc(/C(C)=N\NC(=O)c2ccccc2O)c2nc3cc(C)c(C)cc3nc12	> 100

Test system: SR leukemia
Test: DTP human tumour cell line panel, 48 h

SMILES	TGI [µM]
COc1ccc(/C=C/c2cc(OC)cc(OC)c2)cc1	> 100
CN(c1nc(=[N+](C)C)ss1)C1CCCCC1	> 100
CCOC(=O)c1sc2c(sc(=O)n2-c2ccccc2)c1O	> 100
Cc1ccc(NC(=O)CC(=O)n2nc(-c3ccccc3)c(N=Nc3ccccc3[N+](=O)[O-])c2-c2ccccc2)cc1	> 100

Test system: SW-620 colon
Test: DTP human tumour cell line panel, 48 h

SMILES	TGI [µM]
COc1ccc(/C=C/c2cc(OC)cc(OC)c2)cc1	> 100
CN(c1nc(=[N+](C)C)ss1)C1CCCCC1	> 100
Cc1ccc(NC(=O)CC(=O)n2nc(-c3ccccc3)c(N=Nc3ccccc3[N+](=O)[O-])c2-c2ccccc2)cc1	> 100
C/C(=N/NC(=O)c1ccccc1O)c1ccc(/C(C)=N\NC(=O)c2ccccc2O)c2nc3cc(C)c(C)cc3nc12	> 100

Test system: TK-10 renal
Test: DTP human tumour cell line panel, 48 h

SMILES	TGI [µM]
COc1ccc(/C=C/c2cc(OC)cc(OC)c2)cc1	> 100
CN(c1nc(=[N+](C)C)ss1)C1CCCCC1	> 100
CCOC(=O)c1sc2c(sc(=O)n2-c2ccccc2)c1O	> 100
Cc1ccc(NC(=O)CC(=O)n2nc(-c3ccccc3)c(N=Nc3ccccc3[N+](=O)[O-])c2-c2ccccc2)cc1	> 100
C/C(=N/NC(=O)c1ccccc1O)c1ccc(/C(C)=N\NC(=O)c2ccccc2O)c2nc3cc(C)c(C)cc3nc12	> 100

Test system: U251 CNS
Test: DTP human tumour cell line panel, 48 h

SMILES	TGI [µM]
COc1ccc(/C=C/c2cc(OC)cc(OC)c2)cc1	> 59.8
CN(c1nc(=[N+](C)C)ss1)C1CCCCC1	> 100
CCOC(=O)c1sc2c(sc(=O)n2-c2ccccc2)c1O	> 100
Cc1ccc(NC(=O)CC(=O)n2nc(-c3ccccc3)c(N=Nc3ccccc3[N+](=O)[O-])c2-c2ccccc2)cc1	> 100
C/C(=N/NC(=O)c1ccccc1O)c1ccc(/C(C)=N\NC(=O)c2ccccc2O)c2nc3cc(C)c(C)cc3nc12	> 100

Test system: UACC-257 melanoma
Test: DTP human tumour cell line panel, 48 h

SMILES	TGI [µM]
COc1ccc(/C=C/c2cc(OC)cc(OC)c2)cc1	> 100
CN(c1nc(=[N+](C)C)ss1)C1CCCCC1	> 100
CCOC(=O)c1sc2c(sc(=O)n2-c2ccccc2)c1O	> 100
Cc1ccc(NC(=O)CC(=O)n2nc(-c3ccccc3)c(N=Nc3ccccc3[N+](=O)[O-])c2-c2ccccc2)cc1	> 100
C/C(=N/NC(=O)c1ccccc1O)c1ccc(/C(C)=N\NC(=O)c2ccccc2O)c2nc3cc(C)c(C)cc3nc12	> 100

Test system: UACC-62 melanoma
Test: DTP human tumour cell line panel, 48 h

SMILES	TGI [µM]
COc1ccc(/C=C/c2cc(OC)cc(OC)c2)cc1	> 100
CN(c1nc(=[N+](C)C)ss1)C1CCCCC1	> 100
CCOC(=O)c1sc2c(sc(=O)n2-c2ccccc2)c1O	> 100
Cc1ccc(NC(=O)CC(=O)n2nc(-c3ccccc3)c(N=Nc3ccccc3[N+](=O)[O-])c2-c2ccccc2)cc1	> 100
C/C(=N/NC(=O)c1ccccc1O)c1ccc(/C(C)=N\NC(=O)c2ccccc2O)c2nc3cc(C)c(C)cc3nc12	> 100

Test system: UO-31 renal
Test: DTP human tumour cell line panel, 48 h

SMILES	TGI [µM]
COc1ccc(/C=C/c2cc(OC)cc(OC)c2)cc1	> 64.2
CN(c1nc(=[N+](C)C)ss1)C1CCCCC1	> 100
CCOC(=O)c1sc2c(sc(=O)n2-c2ccccc2)c1O	> 100
Cc1ccc(NC(=O)CC(=O)n2nc(-c3ccccc3)c(N=Nc3ccccc3[N+](=O)[O-])c2-c2ccccc2)cc1	> 100
C/C(=N/NC(=O)c1ccccc1O)c1ccc(/C(C)=N\NC(=O)c2ccccc2O)c2nc3cc(C)c(C)cc3nc12	> 100

Test system: XF 498 CNS
Test: DTP human tumour cell line panel, 48 h

SMILES	TGI [µM]
COc1ccc(/C=C/c2cc(OC)cc(OC)c2)cc1	98.9
CN(c1nc(=[N+](C)C)ss1)C1CCCCC1	> 100
CCOC(=O)c1sc2c(sc(=O)n2-c2ccccc2)c1O	> 100
Cc1ccc(NC(=O)CC(=O)n2nc(-c3ccccc3)c(N=Nc3ccccc3[N+](=O)[O-])c2-c2ccccc2)cc1	> 100
C/C(=N/NC(=O)c1ccccc1O)c1ccc(/C(C)=N\NC(=O)c2ccccc2O)c2nc3cc(C)c(C)cc3nc12	> 100
